Laboratory results: US20250352520A1, “USE OF DEXPRAMIPEXOLE FOR THE TREATMENT OF EOSINOPHILIC COPD” (Areteia Therapeutics, Inc., priority 2024, published 2025)
Like-named read-outs stand apart in the source and are kept apart here.

Key:
[1] = test system: eosinophils in blood and airways; settings: 150 mg BID dexpramipexole dihydrochloride; up to approximately
[2] = for COPD Assessment - Total Score, CFB (Change from baseline), Max / COPD Assessment - Total Score, CFB (Change from baseline), Mean ± SD / COPD Assessment - Total Score, CFB (Change from baseline), Median / COPD Assessment - Total Score, CFB (Change from baseline), Min / COPD Assessment - Total Score, CFB (Change from baseline), Q1 / COPD Assessment - Total Score, CFB (Change from baseline), Q3 / COPD Assessment - Total Score, Observed, Max / COPD Assessment - Total Score, Observed, Mean ± SD / COPD Assessment - Total Score, Observed, Median / COPD Assessment - Total Score, Observed, Min / COPD Assessment - Total Score, Observed, Q1 / COPD Assessment - Total Score, Observed, Q3: Week 16, 150 mg BID
Source text: The CAT is a participant-completed instrument that can quantify the impact of COPD on the participant's health. It complements existing approaches to assessing COPD, such as FEV1 measurement.
The CAT has a scoring range of 0-40 (0 to 5 on 8 questions) with higher numbers indicating more severe symptoms.

[3] = <50% AEC reduction at Week 16 (N = 4)
[4] = >=50% AEC reduction at Week 16 (N = 3)

In the case of `CCCN[C@@H]1CCc2nc(N)sc2C1` [Dexpramipexole, (6R)-2-amino-4,5,6,7-tetrahydro-6-(propylamino)benzothiazole], the “reductions of eosinophils in blood and airways” value [1] is reported as at most 80%, the “CAT total score, decrease compared to baseline” value ([2]; AECR≥0.5 patients, week 16) is reported as 8.7 points and the “COPD Assessment - Total Score, CFB (Change from baseline), Max” value [2, 3] is reported as 0. For the same compound, the “COPD Assessment - Total Score, CFB (Change from baseline), Mean ± SD” value [2, 3] was −1.8 ± 1.50, the “COPD Assessment - Total Score, CFB (Change from baseline), Median” value [2, 3] was −2.0 and the “COPD Assessment - Total Score, CFB (Change from baseline), Min” value [2, 3] was −3. The “COPD Assessment - Total Score, CFB (Change from baseline), Q1” value [2, 3] was −3, the “COPD Assessment - Total Score, CFB (Change from baseline), Q3” value [2, 3] was −1 and the “COPD Assessment - Total Score, Observed, Max” value [2, 3] was 24. The “COPD Assessment - Total Score, Observed, Mean ± SD” value [2, 3] was 17.5 ± 8.27, the “COPD Assessment - Total Score, Observed, Median” value [2, 3] was 20.0 and the “COPD Assessment - Total Score, Observed, Min” value [2, 3] was 6. The “COPD Assessment - Total Score, Observed, Q1” value [2, 3] was 12, the “COPD Assessment - Total Score, Observed, Q3” value [2, 3] was 24 and the “COPD Assessment - Total Score, CFB (Change from baseline), Max” value [2, 4] was −8. The “COPD Assessment - Total Score, CFB (Change from baseline), Mean ± SD” value [2, 4] was −8.7 ± 1.15, the “COPD Assessment - Total Score, CFB (Change from baseline), Median” value [2, 4] was −8.0 and the “COPD Assessment - Total Score, CFB (Change from baseline), Min” value [2, 4] was −10. The “COPD Assessment - Total Score, CFB (Change from baseline), Q1” value [2, 4] was −10, the “COPD Assessment - Total Score, CFB (Change from baseline), Q3” value [2, 4] was −8 and the “COPD Assessment - Total Score, Observed, Max” value [2, 4] was 23. The “COPD Assessment - Total Score, Observed, Mean ± SD” value [2, 4] was 16.3 ± 5.86, the “COPD Assessment - Total Score, Observed, Median” value [2, 4] was 14.0 and the “COPD Assessment - Total Score, Observed, Min” value [2, 4] was 12. The “COPD Assessment - Total Score, Observed, Q1” value [2, 4] was 12 and the “COPD Assessment - Total Score, Observed, Q3” value [2, 4] was 23.
